Assays:
wheat = assay: Test Example 5: effect on crop by foliage application, plastic box (Table 20, symbol e); format: in vivo; details: AAH 320 g/ha, three weeks after application
Text: [Test Example 5] Herbicidal Effect Test by Foliage Application
Sterilized diluvial soil was placed in a plastic box having a length of 21 cm, a width of 13 cm, and a depth of 7 cm. The seeds of each of southern crabgrass, green foxtail, barnyard grass, wild oat, blackgrass, Italian ryegrass, windgrass, velvetleaf, redroot pigweed, lambsquarters, chickweed, false cleavers, persian speedwell, corn, soybean, rice, wheat, beet, and rapeseed were sowed in a spot-like manner and covered with the soil having a thickness of about 1.5 cm. Thereafter, the plants were grown in a greenhouse at 25° C. to 30° C. After 14-day growth of the plants, the emulsion agent of the compound of the present invention prepared according to Formulation Example 2 was diluted with water so as to achieve a predetermined herbicide amount, and the diluted emulsion agent was uniformly applied to a foliage part with a small-sized spray. Three weeks after the herbicide application, the effect of the herbicide on each plant was evaluated according to the criteria of Test Example 1.

directly sowed rice = assay: Test Example 3: effect on crop by foliage application, Wagner pot (Table 18, symbol b); format: in vivo; details: 320 g/ha
Method: [Test Example 3] Herbicidal Effect Test by Foliage Application After alluvial soil was placed into 1/10000 are of Wagner pot, water was poured and mixed to form a submerged condition having a water depth of 0.1 cm to 0.5 cm. Seeds of barnyard grass, Chinese sprangletop, rice flat sedge, and rice were sowed and the pot was placed in a greenhouse at 25° C. to 30° C. for growth of the plants. After 14-day growth of the plants, the emulsion agent of the compound of the present invention prepared according to Formulation Example 2 was diluted with water so as to achieve a predetermined herbicide amount, and the diluted emulsion agent was uniformly applied to a foliage part with a small-sized spray. Three weeks after the herbicide application, the effect of the herbicide on each plant was evaluated according to the criteria of Test Example 1.

green foxtail = assay: Test Example 5: herbicidal effect by foliage application, plastic box (Table 20, symbol G); format: in vivo, green foxtail (Setaria viridis); details: foliage application, AAH 320 g/ha, three weeks after application
Outline: (§1)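 Plants were sown into sterilized diluvial soil under about 1.5 cm cover and kept in a greenhouse at 25° C. to 30° C. Fourteen days on, foliage received an even spray of the diluted emulsion. Herbicidal or crop effect was judged three weeks afterwards.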

velvetleaf = assay: Test Example 4: herbicidal effect by soil treatment (Table 19, symbol M); format: in vivo, velvetleaf (Abutilon theophrasti); details: amount of applied herbicide 320 g/ha
Outline: (§2)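 In this soil treatment, the formulated compound reached the seeds only through the soil: seeds were buried about 1.5 cm deep in sterilized diluvial soil, then the diluted emulsion was sprayed over the surface. After three weeks at 25° C. to 30° C. in a greenhouse, effects were graded on criteria from an earlier test.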

corn = assay: Test Example 5: effect on crop by foliage application, plastic box (Table 20, symbol c); format: in vivo; details: AAH 320 g/ha, three weeks after application
Outline: as §1

chickweed = assay: Test Example 5: herbicidal effect by foliage application, plastic box (Table 20, symbol P); format: in vivo, common chickweed (Stellaria media); details: foliage application, AAH 320 g/ha, three weeks after application
Outline: as §1

southern crabgrass = assay: Test Example 5: herbicidal effect by foliage application, plastic box (Table 20, symbol F); format: in vivo, southern crabgrass (Digitaria ciliaris); details: foliage application, AAH 320 g/ha, three weeks after application
Outline: as §1

persian speedwell = assay: Test Example 4: herbicidal effect by soil treatment (Table 19, symbol R); format: in vivo, Persian speedwell (Veronica persica); details: amount of applied herbicide 320 g/ha
Outline: as §2

blackgrass [1] = assay: Test Example 4: herbicidal effect by soil treatment (Table 19, symbol J); format: in vivo, blackgrass (Alopecurus myosuroides); details: amount of applied herbicide 320 g/ha
Outline: as §2

wild oat [2] = assay: Test Example 4: herbicidal effect by soil treatment (Table 19, symbol I); format: in vivo, wild oat (Avena fatua); details: amount of applied herbicide 320 g/ha
Outline: as §2

wild oat [3] = assay: Test Example 5: herbicidal effect by foliage application, plastic box (Table 20, symbol I); format: in vivo, wild oat (Avena fatua); details: foliage application, AAH 320 g/ha, three weeks after application
Outline: as §1

beet = assay: Test Example 5: effect on crop by foliage application, plastic box (Table 20, symbol f); format: in vivo; details: AAH 320 g/ha, three weeks after application
Outline: as §1

rapeseed [4] = assay: Test Example 5: effect on crop by foliage application, plastic box (Table 20, symbol g); format: in vivo; details: AAH 320 g/ha, three weeks after application
Outline: as §1

rapeseed [5] = assay: Test Example 4: effect on crop by soil treatment (Table 19, symbol g); format: in vivo; details: amount of applied herbicide 320 g/ha
Outline: as §2

windgrass = assay: Test Example 5: herbicidal effect by foliage application, plastic box (Table 20, symbol L); format: in vivo, windgrass (Apera spica-venti); details: foliage application, AAH 320 g/ha, three weeks after application
Outline: as §1

Chinese sprangletop = assay: Test Example 3: herbicidal effect by foliage application, Wagner pot (Table 18, symbol D); format: in vivo, chinese sprangletop (Leptochloa chinensis); details: 320 g/ha
Outline: (§3)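 Plants were sown in alluvial soil held under 0.1–0.5 cm standing water and grown 14 days in a greenhouse at 25–30 °C. An emulsifiable formulation, water-diluted to the set dose, was then sprayed onto the foliage, and effects were scored three weeks later using previously defined criteria.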

barnyard grass = assay: Test Example 3: herbicidal effect by foliage application, Wagner pot (Table 18, symbol H); format: in vivo, barnyard grass (Echinochloa crus-galli); details: 320 g/ha
Outline: as §3

Italian ryegrass = assay: Test Example 4: herbicidal effect by soil treatment (Table 19, symbol K); format: in vivo, Italian ryegrass (Lolium multiflorum); details: amount of applied herbicide 320 g/ha
Outline: as §2

blackgrass [6] = assay: Test Example 5: herbicidal effect by foliage application, plastic box (Table 20, symbol J); format: in vivo, blackgrass (Alopecurus myosuroides); details: foliage application, AAH 320 g/ha, three weeks after application
Outline: as §1

With Cc1nn(C)c(=O)c(-c2c(-n3cc(Cl)cn3)sc3ccccc23)c1O [Compound No. 1-097, 5-hydroxy-2,6-dimethyl-4-(2-(4-chloro-1H-pyrazol-1-yl)benzo[b]thiophen-3-yl)pyridazin-3(2H)-one] as the molecule, how does the “e: wheat, effect on crop” value (wheat) read?
Its value is 0 (Herbicidal rate of 5% or less (almost no effect)).

What about the “effect on crop b (directly sowed rice), rating 0-5” value (directly sowed rice) of the same molecule?
Its value is 0 (Herbicidal rate of 5% or less (almost no effect)).

And the “G: green foxtail, herbicidal effect” value (green foxtail)?
Its value is 0 (Herbicidal rate of 5% or less (almost no effect)).

What about the “herbicidal effect rating, M: velvetleaf” value (velvetleaf) of the same molecule?
The value was 1 (Herbicidal rate of 5% or more and less than 20%).

And the “c: corn, effect on crop” value (corn)?
The value was 0 (Herbicidal rate of 5% or less (almost no effect)).

What about the “P: chickweed, herbicidal effect” value (chickweed) of the same molecule?
The value was 5 (Herbicidal rate of 90% or more (almost completely withered)).

And the “F: southern crabgrass, herbicidal effect” value (southern crabgrass)?
Its value is 0 (Herbicidal rate of 5% or less (almost no effect)).

And the “herbicidal effect rating, R: persian speedwell” value (persian speedwell)?
Its value is 0 (Herbicidal rate of 5% or less (almost no effect)).

And the “herbicidal effect rating, J: blackgrass” value (blackgrass [1])?
Its value is 0 (Herbicidal rate of 5% or less (almost no effect)).

What about the “herbicidal effect rating, I: wild oat” value (wild oat [2]) of the same molecule?
The value was 0 (Herbicidal rate of 5% or less (almost no effect)).

And the “I: wild oat, herbicidal effect” value (wild oat [3])?
Its value is 0 (Herbicidal rate of 5% or less (almost no effect)).

And the “f: beet, effect on crop” value (beet)?
Its value is 5 (Herbicidal rate of 90% or more (almost completely withered)).

What about the “g: rapeseed, effect on crop” value (rapeseed [4]) of the same molecule?
Its value is 5 (Herbicidal rate of 90% or more (almost completely withered)).

And the “effect rating on crop, g: rapeseed” value (rapeseed [5])?
The value was 0 (Herbicidal rate of 5% or less (almost no effect)).

What about the “L: windgrass, herbicidal effect” value (windgrass) of the same molecule?
Its value is 0 (Herbicidal rate of 5% or less (almost no effect)).

What about the “herbicidal effect on D (Chinese sprangletop), rating 0-5” value (Chinese sprangletop) of the same molecule?
Its value is 0 (Herbicidal rate of 5% or less (almost no effect)).

What about the “herbicidal effect on H (barnyard grass), rating 0-5” value (barnyard grass) of the same molecule?
Its value is 0 (Herbicidal rate of 5% or less (almost no effect)).

And the “herbicidal effect rating, K: Italian ryegrass” value (Italian ryegrass)?
The value was 0 (Herbicidal rate of 5% or less (almost no effect)).

And the melting point?
Its melting point is 232 to 234 °C.

And the “J: blackgrass, herbicidal effect” value (blackgrass [6])?
The value was 0 (Herbicidal rate of 5% or less (almost no effect)).

— patent publication US20230085307A1, “PYRIDAZINONE COMPOUND AND HERBICIDE” (NISSAN CHEMICAL CORPORATION, priority 2019, published 2023)
